Reference: PubChem BioAssay (NCI)
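A five-concentration, 48-hour dose response in 96-well plates underlies each endpoint, interpolated linearly between surrounding concentrations. The concentration for 50% growth inhibition is given as GI50. TGI is the concentration that stops growth completely.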

Tests used:
Assay in all cases: NCI anticancer screen, dose series, 48 h
[1] = test system: SNB-75 CNS
[2] = test system: SF-539 CNS
[3] = test system: K-562 leukemia
[4] = test system: TK-10 renal
[5] = test system: LOX IMVI melanoma
[6] = test system: U251 CNS
[7] = test system: EKVX NSCLC
[8] = test system: SR leukemia
[9] = test system: KM12 colon
[10] = test system: T-47D breast
[11] = test system: MCF7 breast
[12] = test system: OVCAR-4 ovarian
[13] = test system: A498 renal
[14] = test system: PC-3 prostate
[15] = test system: SK-MEL-28 melanoma
[16] = test system: HS 578T breast
[17] = test system: SNB-19 CNS
[18] = test system: UACC-257 melanoma
[19] = test system: MDA-MB-435
[20] = test system: SN12C renal
[21] = test system: CAKI-1 renal
[22] = test system: COLO 205 colon
[23] = test system: OVCAR-8 ovarian
[24] = test system: UO-31 renal
[25] = test system: NCI-H23 lung
[26] = test system: SW-620 colon
[27] = test system: NCI/ADR-RES ovarian
[28] = test system: OVCAR-5 ovarian
[29] = test system: NCI-H460 lung
[30] = test system: MALME-3M melanoma
[31] = test system: SK-MEL-5 melanoma
[32] = test system: HOP-62 NSCLC
[33] = test system: OVCAR-3 ovarian
[34] = test system: A549 NSCLC
[35] = test system: SF-268 CNS
[36] = test system: 786-0 renal
[37] = test system: MOLT-4 leukemia
[38] = test system: M14 melanoma
[39] = test system: HCT-116 colon
[40] = test system: CCRF-CEM leukemia
[41] = test system: UACC-62 melanoma
[42] = test system: NCI-H522 lung
[43] = test system: RPMI-8226 leukemia
[44] = test system: MDA-MB-231 breast
[45] = test system: IGROV1 ovarian
[46] = test system: HL-60(TB) leukemia
[47] = test system: NCI-H226 lung
[48] = test system: HCC-2998 colon
[49] = test system: HT29 colon
[50] = test system: HCT-15 colon
[51] = test system: RXF 393 renal
[52] = test system: SF-295 CNS
[53] = test system: SK-MEL-2 melanoma
[54] = test system: BT-549 breast
[55] = test system: HOP-92 NSCLC
[56] = test system: SK-OV-3 ovarian
[57] = test system: ACHN renal
[58] = test system: DU-145 prostate

Cc1nn2c(/C=C3\C(=O)Nc4ccccc43)c(C)nc2s1
GI50 [1]: 53.7 µM
TGI [1]: > 100 µM
GI50 [2]: 49.8 µM
TGI [2]: > 100 µM
GI50 [3]: 6.71 µM
TGI [3]: > 100 µM
GI50 [4]: 88.7 µM
TGI [4]: > 100 µM
GI50 [5]: 97.1 µM
TGI [5]: > 100 µM
GI50 [6]: 71.9 µM
TGI [6]: > 100 µM
GI50 [7]: 74.1 µM
TGI [7]: > 100 µM
GI50 [8]: 4.86 µM
TGI [8]: > 100 µM
GI50 [9]: 6.4 µM
TGI [9]: > 100 µM
GI50 [10]: 32 µM
TGI [10]: > 100 µM
GI50 [11]: 7.46 µM
TGI [11]: > 100 µM
GI50 [12]: > 100 µM
TGI [12]: > 100 µM
GI50 [13]: 31.3 µM
TGI [13]: > 100 µM
GI50 [14]: 29.5 µM
TGI [14]: > 100 µM
GI50 [15]: > 100 µM
TGI [15]: > 100 µM
GI50 [16]: 78 µM
TGI [16]: > 100 µM
GI50 [17]: 45.7 µM
TGI [17]: > 100 µM
GI50 [18]: > 100 µM
TGI [18]: > 100 µM
GI50 [19]: 2.85 µM
TGI [19]: > 100 µM
GI50 [20]: > 100 µM
TGI [20]: > 100 µM
GI50 [21]: > 100 µM
TGI [21]: > 100 µM
GI50 [22]: 5.33 µM
TGI [22]: 63.4 µM
GI50 [23]: 77.8 µM
TGI [23]: > 100 µM
GI50 [24]: 70 µM
TGI [24]: > 100 µM
GI50 [25]: 35.4 µM
TGI [25]: > 100 µM
GI50 [26]: 8.87 µM
TGI [26]: > 100 µM
GI50 [27]: 6.3 µM
TGI [27]: 99 µM
GI50 [28]: 50.7 µM
TGI [28]: > 100 µM
GI50 [29]: 13.3 µM
TGI [29]: > 100 µM
GI50 [30]: > 100 µM
TGI [30]: > 100 µM
GI50 [31]: 16.5 µM
TGI [31]: > 100 µM
GI50 [32]: 15.7 µM
TGI [32]: > 100 µM
GI50 [33]: 35.6 µM
TGI [33]: > 100 µM
GI50 [34]: 32.7 µM
TGI [34]: > 100 µM
GI50 [35]: 54.6 µM
TGI [35]: > 100 µM
GI50 [36]: 40.4 µM
TGI [36]: > 100 µM
GI50 [37]: 17.5 µM
TGI [37]: > 100 µM
GI50 [38]: 12.3 µM
TGI [38]: > 100 µM
GI50 [39]: 15.7 µM
TGI [39]: > 100 µM
GI50 [40]: 30.1 µM
TGI [40]: > 100 µM
GI50 [41]: 35.5 µM
TGI [41]: > 100 µM
GI50 [42]: 18.5 µM
TGI [42]: > 100 µM
GI50 [43]: 49 µM
TGI [43]: > 100 µM
GI50 [44]: > 100 µM
TGI [44]: > 100 µM
GI50 [45]: 30.6 µM
TGI [45]: > 100 µM
GI50 [46]: 21 µM
TGI [46]: > 100 µM
GI50 [47]: > 100 µM
TGI [47]: > 100 µM
GI50 [48]: 13.7 µM
TGI [48]: > 100 µM
GI50 [49]: 5.32 µM
TGI [49]: > 100 µM
GI50 [50]: 17.1 µM
TGI [50]: > 100 µM
GI50 [51]: 26.2 µM
TGI [51]: 87.6 µM
GI50 [52]: 29.1 µM
TGI [52]: > 100 µM
GI50 [53]: 27.6 µM
TGI [53]: > 100 µM
GI50 [54]: > 100 µM
TGI [54]: > 100 µM
GI50 [55]: 61 µM
TGI [55]: > 100 µM
GI50 [56]: 34.8 µM
TGI [56]: > 100 µM
GI50 [57]: > 100 µM
TGI [57]: > 100 µM
GI50 [58]: 75.8 µM
TGI [58]: > 100 µM
